Measurements taken from patent US11207299B2, “Biphenyl sulfonamide compounds for the treatment of type IV collagen diseases” (Travere Therapeutics, Inc., priority 2018, dated 2021).
“Also recorded” adds a separate entry of the source.

Tested on: autosomal Alport mice (COL4A3^−/−)
Assay: Pilot study: dose-dependent effects of sparsentan in Alport mice treated from 3-7 weeks of age
Type: in vivo, mouse
Conditions: for SBP / UP/C / DBP / Sclerotic Glomeruli (%) / BUN / Fibrosis Score: mean ± SD; for Sclerotic Glomeruli (%): fibronectin staining; for Fibrosis Score: at 7 wk, COL1-positive cortical area scored 0=<5% to 5=75-100%
Text: Vehicle or sparsentan was given daily by oral gavage to autosomal Alport mice (COL4A3^−/−) on the 129/Sv background (male and female) in five separate studies: a pilot study, an early intervention study (treated from 3-7 weeks of age), a late intervention study (treated from 5-7 weeks of age after the onset of glomerular (GM) changes), a lifespan study, and a hearing study (FIG. 1). The early intervention, late intervention, lifespan, and hearing studies also included mice treated with a comparator, losartan, which was given orally at 3-4 weeks of age in the early intervention study, in drinking water at 4-7 weeks of age in the early intervention study, and in drinking water at 5-7 weeks in the late intervention study.
Efficacy renal endpoints included blood urea nitrogen (BUN), proteinuria (urine protein to creatinine ratio, or UP/C), glomerulosclerosis, tubulointerstitial fibrosis, leucocyte infiltration, and glomerular basement morphology (GBM) using transmission electron microscopy (TEM). Endpoints in the inner ear included auditory brain stem response (ABR) threshold as a measure of noise-induced hearing loss, strial capillary basement membrane thickness, and inner ear pathology by TEM.
In the pilot study, designed to determine an optimal efficacious dose of sparsentan, Alport mice (3-4 per group) were dosed with vehicle (0.5% methylcellulose 4000 cps/0.25% Tween® 80 in distilled water) or sparsentan at 60 mg/kg or 200 mg/kg from 3 to 7 weeks of age for 28 days. Although 200 mg/kg sparsentan was efficacious in the pilot study, BUN levels were higher than those of Alport mice dosed with 60 mg/kg sparsentan (Table 1; FIG. 2A; FIG. 2B). This observation led to the selection of a 120 mg/kg dose of sparsentan to take forward into the early intervention study. During the pilot study, blood pressure (BP) was measured weekly using the CODA2 tail cuff system. Stria from this pilot study were also examined by immunofluorescence using antibodies to laminin α2
For the pilot, early intervention, late intervention, and lifespan studies, spot urine was sampled pre-study and weekly during treatment and analyzed for protein (UP) and creatinine (C) to determine proteinuria (UP/C). At the end of each study the animals were euthanized, blood samples were taken, BUN was measured from serum, and kidneys were harvested for structural and immuno-fluorescent measurements. Glomerulosclerosis was assessed by immunofluorescence (IF) using an antibody to fibronectin (FN). Visual counting of the number of sclerotic glomeruli as a proportion of the total number of glomeruli per slide was used to calculate the percentage of sclerotic glomeruli. Sections were co-stained with an anti-CD45 antibody to indicate leucocyte infiltration. Tubulointerstitial fibrosis was determined by IF of kidney sections using an antibody to collagen 1 (COL1). Tubulointerstitial fibrosis (TIF) scoring was conducted by visual assessment of the COL1 positive area as a percentage of the total cortical area and was performed blinded. The fibrosis scoring (“Fibrosis Score”) was categorized according to visual judgment of percentage of total cortical area, as: 0=<5%, 1=5-10%, 2=10-25%, 3=25-50%, 4=50-75%, or 5=75-100%. Ultrastructural changes in GBM and podocyte morphology were observed using transmission electron microscopy (TEM).

[1] = Alport mice, sparsentan 60 mg/kg, at 5 wk of age
[2] = Alport mice, sparsentan 60 mg/kg, at 6 wk of age
[3] = Alport mice, sparsentan 60 mg/kg, at 7 wk of age
[4] = Alport mice, sparsentan 200 mg/kg, at 5 wk of age
[5] = Alport mice, sparsentan 200 mg/kg, at 6 wk of age
[6] = Alport mice, sparsentan 200 mg/kg, at 7 wk of age

BUN levels after 200 mg/kg compared to 60 mg/kg sparsentan (Alport mice, 7 weeks of age, 4 weeks of dosing): elevated
Compound: CCCCC1=NC2(CCCC2)C(=O)N1Cc1ccc(-c2ccccc2S(=O)(=O)Nc2noc(C)c2C)c(COCC)c1 [sparsentan]
SBP (Alport mice, sparsentan 60 mg/kg oral daily from 3 wk, at 5 wk of age, n = 4): 114.0 ± 13.0 mmHg
UP/C (Alport mice, sparsentan 60 mg/kg, at 4 wk of age): 3.4 ± 2.6 mg/mg
DBP [1]: 71.1 ± 10.7 mm/Hg
UP/C [1]: 8.6 ± 2.4 mg/mg
DBP [2]: 72.9 ± 9.6 mm/Hg
SBP [2]: 106.2 ± 6.9 mmHg
UP/C [2]: 1.5 ± 1.5 mg/mg
Sclerotic Glomeruli (%) [3]: 3.5±1.6%
BUN [3]: 17.1 ± 1.5 mg/dL
DBP [3]: 78.1 ± 14.7 mm/Hg
SBP [3]: 117.6 ± 4.6 mmHg
UP/C [3]: 5.6 ± 3.0 mg/mg
Fibrosis Score (Alport mice, sparsentan 60 mg/kg): 0.0 ± 0.0
SBP (Alport mice, sparsentan 200 mg/kg oral daily from 3 wk, at 5 wk of age, n = 3): 110.6 ± 21.8 mmHg
UP/C (Alport mice, sparsentan 200 mg/kg, at 4 wk of age): 2.1 ± 3.7 mg/mg
DBP [4]: 99.7 ± 7.7 mm/Hg
UP/C [4]: 3.9 ± 3.5 mg/mg
DBP [5]: 74.6 ± 21.4 mm/Hg
SBP [5]: 108.7 ± 26.4 mmHg
UP/C [5]: 1.5 ± 2.7 mg/mg
Sclerotic Glomeruli (%) [6]: 1.4±1.3%
BUN [6]: 25.9 ± 7.7 mg/dL
DBP [6]: 91.7 ± 20.0 mm/Hg
SBP [6]: 122 ± 20.9 mmHg
UP/C [6]: 0.8 ± 1.4 mg/mg
Fibrosis Score (Alport mice, sparsentan 200 mg/kg): 0.0 ± 0.0
Prevention of UP/C, glomerulosclerosis, and fibrosis compared to vehicle-treated mice (sparsentan 60 and 200 mg/kg, 3-7 weeks of age): prevented an increase in glomerulosclerosis in a dose-dependent manner; also recorded: dose-dependent prevention
Systolic and diastolic blood pressure compared to vehicle-treated Alport mice (sparsentan 60 or 200 mg/kg, 6 weeks of age (3 weeks of dosing)): significantly lower
COL1 immunoreactivity (sparsentan-treated Alport mice, pilot study, kidney sections): absent
BP compared to vehicle-treated Alport mice (sparsentan, end of pilot study (7 weeks of age; 4 weeks of dosing)): no difference
